Reference: US12344852B2, “Control of phenotype in plants” (GREENVENUS, LLC, priority 2016, dated 2025)

How the values were obtained:
[1] = tested on: IP:FT (ID14) transgenic ft mutant Arabidopsis plants; assay: Induction of flowering in IP:FT (ID14) transgenic ft mutant plants by ligand spray; assay type: in vivo
Experimental: Briefly, the DNA constructs shown in FIG. 3 were transformed into homozygous ft mutant Arabidopsis by flower dipping method. T1 seeds were harvested and germinated in soil. 5 days old T1 seedlings were sprayed with LIBERTY® 280SL herbecide to kill off non-transgenic plants. Selected transgenic plants were analyzed by Bar-specific quantitative PCR (qPCR) to check transgene copy number. Events with low copy number of the transgenes were grown in growth chambers to evaluate phenotypes. […] Select T1 plants were grown to maturity and seeds were used to generate T2 and T3 progeny plants. Further detailed evaluation of the transgenic lines were done in T2 and T3 generation plants (as described in Example 7).
At day 11, the ID14 plants produced more flowers and pods while the ft mutant plant just started bolting.
T2 seeds were harvested from ID14 T1 plants and several experiments were designed to test if the EcR gene switch is tightly controlling the transgenic FT expression in the absence of the activator ligand, and if the switch can be easily turned on by applying the ligand to express enough FT to induce early flowering. T2 seeds from six independent ID14 lines (three with single copy of the transgene and three—with two copies) were planted along with wild-type Arabidopsis and ft mutant and grown under long day (16 hours) and short day (8 hours) photoperiods. Genotype of these T2 plants: homozygous, heterozygous, and null were assessed by TaqMan qPCR as described in Example 7 with the exception of utilizing only the Bar gene-specific primers and probes Bar-F1/Bar-R1/Bar-T1 and the same PDS endogenous control AtPDS-F1/AtPDS-R1/AtPDS-T1. The T2 plants segregated the transgene as a single gene following the Mendelian inheritance.
The homozygous plants and null segregants that served as isogenic negative controls were subject to treatment with water (as a control) and 2 concentrations of methoxyfenozide: low (250 nM) and high (2.5 μM). Plants were treated in groups of 2 pots with 5 plants in each at short and long day photoperiods. Treatments were administered every other day starting from day 19 (long day) and 25 (short day) after planting and continued for about three weeks until all plants flowered.
ID14 T2 plants were maintained to maturity and T3 seeds were collected for further characterization of a selected single-copy line ID14-50. The homozygous and null segregant T3 plants along with Arabidopsis ft mutant plants were grown for three weeks before starting ligand application. Plants were divided in four groups in which up to twelve individual plants per genotype were counted. Each group was treated with different concentrations of methoxyfenozide (10, 50 and, 250 nM) and one group was mock treated (water). Treatments were applied every other day from day 17 (long day) or 24 (short day) for a period of approximately three weeks or until all plants flowered.
The observation was done over a period of ninety days from the day of planting. In both short day and long day photoperiod, the homozygous T3 ID14-50 plants exposed to ligand started flowering as early as fourteen days before any null plants and ft mutants while the untreated plants flowered at a similar time with null and ft mutant plants as shown in FIG. 18.

[2] = tested on: IP:ChsA RNAi (ID164) transgenic Petunia plants; assay: Flower color change in IP:ChsA RNAi (ID164) transgenic petunia after ligand spray; assay type: in vivo, Petunia hybrida variety V26; conditions: for time to change flower color from dark purple to variegate: one application
Excerpt: DNA construct ID164 (LB-IP:ChsA RNAi+35S:AP+CsVMV:NptII-RB) (SEQ ID NO:55) containing both the inducible promoter (IP) composed of 5 GAL4 regulatory elements (GAL4-RE) placed upstream of the minimal CaMV-35S promoter and the multidomain activator (AP) protein gene (VGE(E68V/V184I/Y204E) under the control of CaMV-35S promoter is shown in FIG. 20B. ID164 (SEQ ID NO:55) was used to transform wild type (wt) Petunia hybrid variety V26. The chalcone synthase hairpin transcript will not be express until the activator ligand (methoxyfenozide; Mtf) is provided to mobilize the activator proteins for binding to the GAL4-RE and switching the inducible promoter FS on. Transgene copy number was assessed for 56 TO transgenic plants by Tagman assay. 84% were low copies (two copies and below), 12.5% were high copy (three copies and above) and, few plants were nulls. Before ligand application most (98%) plants were flowering as dark purple color. Plants were divided in five groups, each group being treated differently. Treatment occurred every other day at a rate of 30 ml per plant. Treatment is sprayed on plants (leaves and flowers). Water is used as a mock treatment while INTREPID® 2F insecticide (Mtf being the active ingredient) is used as a ligand treatment. Group one was mock treated. Group two was treated with 2.5 uM Mtf in INTREPID® 2F insecticide form. Group three was treated with 1 mM Mtf (highest recommended dose on ornamental plants for INTREPID® 2F). Group four was treated with 2 mM Mtf and group five treated with 5 mM Mtf. […] When increasing the ligand concentration to 1 mM, change in flower color, dark purple to variegate, was observed faster (7 days post-treatment) on 50% of plants as shown in FIG. 23. With 2 mM and 5 mM ligand, one application (2 days post-treatment) was sufficient to change flower color from dark purple to variegate as shown in FIG. 24 and FIG. 25, respectively. Decrease in ChsA gene expression level in treated plants compared to their higher level before ligand treatment correlates with their change in flower color as shown in FIG. 21.

COc1cccc(C(=O)NN(C(=O)c2cc(C)cc(C)c2)C(C)(C)C)c1C [methoxyfenozide, 3-methoxy-2-methylbenzoic acid 2-(3,5-dimethylbenzoyl)-2-(1,1-dimethylethyl)hydrazide]
flowering of non-flowering IP:FT plants after spray ([1]; T1 ID14 plants sprayed with ligand): induced flowering and allowed for normal seed set
time until treated ID14 plants started bolting ([1]; T1 plants not flowering within 3 weeks, 2.5 μM every other day, ft mutant did not): ≤ 5 days
time after the first application until ID14 plants started to flower ([1]; T2 ID14 plants, ft mutant and untreated ID14 plants did not flower): Five
flowered earlier than ft mutant plants ([1]; homozygous T2 ID14-50 plants, 250 or 2500 nM): 22 to 30 days
induction of flowering ([1]; homozygous T2 ID14 plants, 250 nM and 2.5 μM every other day): clearly observed in most homozygous plants
started flowering before any null plants and ft mutants ([1]; homozygous T3 ID14-50 plants, 10, 50, 250 nM, short day and long day photoperiod): fourteen
biomass production (number of rosette leaves as a proxy) ([1]; homozygous T3 ID14-50 plants, all ligand concentrations, both photoperiods): strong decrease
time to flower color change from dark purple to light purple ([2]; 2.5 uM): 10 days post-treatment
plants showing flower color change from dark purple to light purple ([2]; 2.5 uM, sprayed every other day, 30 ml per plant, INTREPID 2F form): 50%
plants showing change in flower color, dark purple to variegate ([2]; 1 mM): 50%
time to change in flower color, dark purple to variegate ([2]; 1 mM): 7 days post-treatment
time to change flower color from dark purple to variegate ([2]; 2 mM): 2 days post-treatment
time to change flower color from dark purple to variegate ([2]; 5 mM): 2 days post-treatment
